Results on 2 compounds are retold here after article PMC11546719, “Immune Modulatory Profile of the Pateamines PatA and Des-Methyl Des-Amino PatA” (International Journal of Molecular Sciences, 2024).

One data set relates to T cells. The data set is described as follows: Energy metabolism (Seahorse OCR/ECAR) in T cells. In kind it is cell-based, human. The following applies: 5 days, PatA, DMDA 0.25-0.5 nM, silvestrol 5 nM. The method, then:
The determination of the energy metabolism was performed as described previously. Briefly, for the analysis of the extracellular acidification rate (ECAR) and the oxygen consumption rate (OCR) for human B cells, Tcells, M1 MdMs and M2 MdMs, the Seahorse XFe96 FluxPak (Agilent, Waldbronn, Germany) was used as recommended by the manufacturer. MdMs were polarized to M1 or M2 MdMs in the presence of PatA (0.5, 2.5, 5 nM), DMDA (0.5, 2.5, 5 nM) or vehicle (DMSO) for 48 h or 24 h, respectively. T cells were activated in the presence of PatA (0.25, 0.5 nM), DMDA (0.25, 0.5 nM), silvestrol or DMSO. B cells were activated in the presence of PatA (0.25, 0.5 nM), DMDA (0.25, 0.5 nM), silvestrol (5 nM) or rapamycin (10 ng/mL positive control). Cells were washed with Seahorse XF RPMI medium pH 7.4 (Agilent, Waldbronn, Germany) and OCR and ECAR were measured as octuplicates for a period of 160 min using the Seahorse XFe96 Analyzer (Agilent, Waldbronn, Germany) and analyzed by Wave Software 2.6.3.8 (Agilent, Waldbronn, Germany). The relative values were calculated by relating the OCR or ECAR values obtained after 50 min to the values of the vehicle control (not stimulated).

For data set [1], the system named is B cells, T cells, M1 MdMs, M2 MdMs. As to the kind of experiment: Immune cell viability, formazan-based assay. Set-up: species or system human. The conditions noted are these: 48 h. The method, then: nitrogen, and the residue dissolved in 50 µl methanol. The analysis was performed with an Agilent 1290 Inﬁnity LC system (Agilent, Waldbronn, Germany) coupled to a hybrid triple quadrupole linear ion trap mass spectrometer QTRAP 6500+ (Sciex, Darmstadt, Ger-many) equipped with a Turbo-V-source operating in positive electrospray ionization mode. The chromatographic separation was carried out using an Acquity UPLC BEH C18 column (100x 2.1 mm, 1.7 µm; Waters, Eschborn, Deutschland), maintained at 40 °C. Mobile Phase A was 0.1% formic acid with 20 mM ammonium formate and mobile Phase B was meth-anol with 0.1% formic acid with 20 mM ammonium formate. A gradient program was em-ployed at a flow rate of 400 µl/min, as follows: initial 20% B to 0.5 min, increasing to 90% B from 0.5 to 4.5 min, with a hold time of 1.0 min. Re-equilibration was performed by reducing to 20% B from 5.5 to 5.6 min, and then holding at 20% B until 7.0 min.
For analysis and quantiﬁcation of all compounds, Analyst Software 1.7.1 and Multi-quant Software 3.0.3 (both Sciex, Darmstadt, Germany) were used. The precursor-to-prod-uct ion transitions used for quantiﬁcation were: m/z 237.1 → m/z 194.1 for carbamazepine, […]
482.2 for DMDA, and […]. […]
Supplementary Figure S1. […] Viability was determined by a formazan-based assay. […]

For `CC(/C=C/C(C)=C/[C@@H]1Cc2nc(cs2)CCCCC(=O)O[C@@H](C)C/C(C)=C/C=C\C(=O)O1)=C\CN(C)C` [DMDA, des-methyl des-amino pateamine A], the “Energy metabolism: glycolysis (ECAR) and oxidative phosphorylation (OCR)” value in the data set on T cells is “did not alter the energy metabolism”. Besides, the “Cytotoxicity in immune cell types” value in data set [1] is “less cytotoxic in comparison with PatA”. As for `CC(/C=C/C(C)=C/[C@@H]1Cc2nc(cs2)[C@@H](C)C[C@@H](N)CC(=O)O[C@@H](C)C/C(C)=C/C=C\C(=O)O1)=C\CN(C)C` [PatA, pateamine A], the “Energy metabolism: glycolysis (ECAR) and oxidative phosphorylation (OCR)” value in the data set on T cells is listed as “did not alter the energy metabolism”.
